In article PMC8429728, “TNK1 is a ubiquitin-binding and 14-3-3-regulated kinase that can be targeted to block tumor growth” (Nature Communications, 2021):
Where two headings read alike, the source gives them in different places.

What was measured:
Assay in all cases: biochemical
Parameters in all cases: Reaction Biology 371-kinase panel at Km ATP, per cent enzyme activity relative to DMSO, single dose in duplicate
PYK2 = target: T1, PYK2 (Homo sapiens, UniProt Q14289); conditions: duplicate measurements, Km ATP
T1 construct: gene PTK2B
In short: (§1)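 In vitro selectivity panel: 371 kinases, inhibitor at 300 nM; % activity vs DMSO; IC50 by variable-slope sigmoidal fit, bottom = 0.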

ERBB2/HER2 = ERBB2/HER2 (Homo sapiens, UniProt P04626); conditions: duplicate measurements, Km ATP
In short: as §1

PKCnu/PRKD3 = PKCnu/PRKD3 (Homo sapiens, UniProt O94806); conditions: duplicate measurements, Km ATP
In short: as §1

STK16 = STK16 (Homo sapiens, UniProt O75716); conditions: duplicate measurements, Km ATP
Sequence of STK16 (O75716 whole entry): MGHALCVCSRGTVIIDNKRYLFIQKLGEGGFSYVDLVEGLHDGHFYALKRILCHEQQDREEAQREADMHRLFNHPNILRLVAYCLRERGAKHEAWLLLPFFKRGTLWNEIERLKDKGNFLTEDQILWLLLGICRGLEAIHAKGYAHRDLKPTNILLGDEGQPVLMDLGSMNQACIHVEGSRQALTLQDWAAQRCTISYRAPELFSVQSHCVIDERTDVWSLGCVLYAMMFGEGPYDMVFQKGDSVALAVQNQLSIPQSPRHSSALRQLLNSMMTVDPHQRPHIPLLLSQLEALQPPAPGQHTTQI
In short: as §1

CLK1 = CLK1 (Homo sapiens, UniProt P49759); conditions: duplicate measurements, Km ATP
Sequence of CLK1 (P49759 whole entry): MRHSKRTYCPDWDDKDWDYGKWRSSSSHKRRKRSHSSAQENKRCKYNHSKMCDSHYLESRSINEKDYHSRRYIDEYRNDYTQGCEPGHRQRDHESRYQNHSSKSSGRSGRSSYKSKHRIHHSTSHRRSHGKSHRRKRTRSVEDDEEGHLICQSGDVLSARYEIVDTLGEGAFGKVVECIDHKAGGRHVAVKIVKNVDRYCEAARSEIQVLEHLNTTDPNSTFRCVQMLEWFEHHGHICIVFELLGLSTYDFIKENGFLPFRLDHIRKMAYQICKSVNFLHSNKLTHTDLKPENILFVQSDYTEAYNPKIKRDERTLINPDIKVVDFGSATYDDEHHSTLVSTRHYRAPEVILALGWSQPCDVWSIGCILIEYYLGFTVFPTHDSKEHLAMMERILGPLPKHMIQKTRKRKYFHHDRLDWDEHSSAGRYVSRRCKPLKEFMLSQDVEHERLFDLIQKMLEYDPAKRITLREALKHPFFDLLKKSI
In short: as §1

p70S6Kb/RPS6KB2 = p70S6Kb/RPS6KB2 (Homo sapiens, UniProt Q9UBS0); conditions: duplicate measurements, Km ATP
Sequence of p70S6Kb/RPS6KB2 (Q9UBS0 whole entry): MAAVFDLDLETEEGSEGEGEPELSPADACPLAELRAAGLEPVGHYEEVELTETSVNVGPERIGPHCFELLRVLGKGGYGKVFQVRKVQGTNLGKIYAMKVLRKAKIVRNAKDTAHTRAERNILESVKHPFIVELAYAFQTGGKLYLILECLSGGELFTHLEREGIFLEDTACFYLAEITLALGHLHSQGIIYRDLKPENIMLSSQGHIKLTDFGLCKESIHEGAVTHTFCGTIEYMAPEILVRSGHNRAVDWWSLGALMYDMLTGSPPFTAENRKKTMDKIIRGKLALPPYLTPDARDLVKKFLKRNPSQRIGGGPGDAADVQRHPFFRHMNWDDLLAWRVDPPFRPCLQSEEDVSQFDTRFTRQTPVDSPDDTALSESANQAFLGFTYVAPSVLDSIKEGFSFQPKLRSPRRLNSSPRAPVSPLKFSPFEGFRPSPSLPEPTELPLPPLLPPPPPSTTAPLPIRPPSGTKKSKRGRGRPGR
In short: as §1

MLK1/MAP3K9 = MLK1/MAP3K9 (Homo sapiens, UniProt P80192); conditions: duplicate measurements, Km ATP
Sequence of MLK1/MAP3K9 (P80192 whole entry): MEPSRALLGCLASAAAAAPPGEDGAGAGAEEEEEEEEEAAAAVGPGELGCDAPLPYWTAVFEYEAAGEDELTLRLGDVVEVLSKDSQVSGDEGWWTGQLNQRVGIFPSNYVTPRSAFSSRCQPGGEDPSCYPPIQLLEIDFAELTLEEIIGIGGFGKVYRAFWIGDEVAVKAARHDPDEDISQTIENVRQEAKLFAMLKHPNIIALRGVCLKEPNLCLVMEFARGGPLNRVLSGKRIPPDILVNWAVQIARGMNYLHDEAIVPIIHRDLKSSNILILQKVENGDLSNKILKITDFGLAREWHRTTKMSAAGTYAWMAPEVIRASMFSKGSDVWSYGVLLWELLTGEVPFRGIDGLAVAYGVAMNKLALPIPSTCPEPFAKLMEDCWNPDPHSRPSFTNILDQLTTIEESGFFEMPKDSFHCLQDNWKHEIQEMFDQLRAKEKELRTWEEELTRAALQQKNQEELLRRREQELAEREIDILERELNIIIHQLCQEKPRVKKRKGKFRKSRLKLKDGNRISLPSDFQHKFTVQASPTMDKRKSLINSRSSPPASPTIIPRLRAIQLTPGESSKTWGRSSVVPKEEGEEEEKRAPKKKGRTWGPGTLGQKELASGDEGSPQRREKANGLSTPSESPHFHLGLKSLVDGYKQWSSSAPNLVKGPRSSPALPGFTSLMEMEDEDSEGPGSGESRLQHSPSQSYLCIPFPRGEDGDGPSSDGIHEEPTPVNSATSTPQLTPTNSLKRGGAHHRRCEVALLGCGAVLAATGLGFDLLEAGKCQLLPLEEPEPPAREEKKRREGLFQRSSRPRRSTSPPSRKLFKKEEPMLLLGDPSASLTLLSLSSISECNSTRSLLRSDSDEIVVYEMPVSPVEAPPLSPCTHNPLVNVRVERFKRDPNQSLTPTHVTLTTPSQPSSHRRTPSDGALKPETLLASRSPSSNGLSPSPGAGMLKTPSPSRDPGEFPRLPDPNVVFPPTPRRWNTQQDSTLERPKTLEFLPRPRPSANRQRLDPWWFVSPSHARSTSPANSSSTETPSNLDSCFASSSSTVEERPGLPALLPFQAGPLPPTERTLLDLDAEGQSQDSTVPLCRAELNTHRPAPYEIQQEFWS
In short: as §1

ZAK/MLTK = target: T2, ZAK/MLTK (Homo sapiens, UniProt Q9NYL2); conditions: duplicate measurements, Km ATP
T2 construct: gene MAP3K20
In short: as §1

ULK1 = ULK1 (Homo sapiens, UniProt O75385); conditions: duplicate measurements, Km ATP
In short: as §1

CK1a1 = target: T3, CK1a1 (Homo sapiens, UniProt P48729); conditions: duplicate measurements, Km ATP
T3 construct: gene CSNK1A1
T3 sequence (P48729 whole entry): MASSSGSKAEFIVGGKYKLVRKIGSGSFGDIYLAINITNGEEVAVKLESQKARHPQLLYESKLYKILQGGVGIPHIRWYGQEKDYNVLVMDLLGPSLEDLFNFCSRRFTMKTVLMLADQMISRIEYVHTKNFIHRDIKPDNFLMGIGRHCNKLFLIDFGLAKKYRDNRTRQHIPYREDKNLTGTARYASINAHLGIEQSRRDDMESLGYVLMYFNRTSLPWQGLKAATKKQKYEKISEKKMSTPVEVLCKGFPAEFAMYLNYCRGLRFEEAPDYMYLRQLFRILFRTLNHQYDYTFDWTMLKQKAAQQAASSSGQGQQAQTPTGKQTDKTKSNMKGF
In short: as §1

c-Src = c-Src (Homo sapiens, UniProt P12931); conditions: duplicate measurements, Km ATP
Sequence of c-Src (P12931 whole entry): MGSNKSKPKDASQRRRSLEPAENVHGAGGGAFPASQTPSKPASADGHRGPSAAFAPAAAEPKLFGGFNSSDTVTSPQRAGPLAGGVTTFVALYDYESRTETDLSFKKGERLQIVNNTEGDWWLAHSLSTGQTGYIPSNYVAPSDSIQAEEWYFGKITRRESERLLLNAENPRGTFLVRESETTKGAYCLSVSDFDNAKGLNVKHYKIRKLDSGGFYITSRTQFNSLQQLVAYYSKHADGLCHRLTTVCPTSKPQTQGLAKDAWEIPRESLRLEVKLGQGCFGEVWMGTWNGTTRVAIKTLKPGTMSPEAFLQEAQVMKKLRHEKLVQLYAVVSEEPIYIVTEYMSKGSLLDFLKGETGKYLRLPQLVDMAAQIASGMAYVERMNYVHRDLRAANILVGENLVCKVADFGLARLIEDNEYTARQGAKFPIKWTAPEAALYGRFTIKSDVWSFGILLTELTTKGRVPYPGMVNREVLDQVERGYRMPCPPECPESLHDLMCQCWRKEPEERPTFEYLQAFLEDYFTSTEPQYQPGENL
In short: as §1

SBK1 = SBK1 (Homo sapiens, UniProt Q52WX2); conditions: duplicate measurements, Km ATP
In short: as §1

IKKe/IKBKE = IKKe/IKBKE (Homo sapiens, UniProt Q14164); conditions: duplicate measurements, Km ATP
In short: as §1

CDK16/cyclin Y (PCTAIRE) = CDK16/cyclin Y (PCTAIRE) (Homo sapiens, UniProt Q00536); conditions: duplicate measurements, Km ATP
In short: as §1

NEK4 = NEK4 (Homo sapiens, UniProt P51957); conditions: duplicate measurements, Km ATP; read-out: % Enzyme Activity (relative to DMSO controls) / TP-0005801 (0.3µM) / Data 1
In short: as §1

CDK8/cyclin C = CDK8/cyclin C (Homo sapiens, UniProt P49336); conditions: duplicate measurements, Km ATP
Sequence of CDK8/cyclin C (P49336 whole entry): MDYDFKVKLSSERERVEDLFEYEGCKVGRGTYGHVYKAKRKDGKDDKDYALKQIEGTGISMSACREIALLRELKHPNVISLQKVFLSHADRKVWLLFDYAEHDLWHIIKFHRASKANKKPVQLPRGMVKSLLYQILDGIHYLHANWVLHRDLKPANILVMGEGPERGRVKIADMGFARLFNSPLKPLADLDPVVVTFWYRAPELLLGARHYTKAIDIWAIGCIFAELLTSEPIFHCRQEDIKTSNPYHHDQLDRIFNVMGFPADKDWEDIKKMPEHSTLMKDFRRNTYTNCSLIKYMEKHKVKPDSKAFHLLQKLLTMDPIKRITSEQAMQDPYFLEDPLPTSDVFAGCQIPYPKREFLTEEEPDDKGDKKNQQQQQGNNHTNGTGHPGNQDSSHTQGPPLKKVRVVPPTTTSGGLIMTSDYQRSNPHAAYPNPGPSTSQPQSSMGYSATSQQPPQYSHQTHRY
Sequence of CDK8/cyclin C (P24863 whole entry partner): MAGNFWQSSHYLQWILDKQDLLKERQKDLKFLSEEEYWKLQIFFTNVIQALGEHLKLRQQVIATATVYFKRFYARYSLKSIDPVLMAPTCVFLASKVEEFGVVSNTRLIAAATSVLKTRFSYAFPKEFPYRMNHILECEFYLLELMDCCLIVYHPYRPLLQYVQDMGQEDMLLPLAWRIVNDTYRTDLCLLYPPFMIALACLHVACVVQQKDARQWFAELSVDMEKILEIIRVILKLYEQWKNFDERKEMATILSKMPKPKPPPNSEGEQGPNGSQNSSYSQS
In short: as §1

EPHB4 = EPHB4 (Homo sapiens, UniProt P54760); conditions: duplicate measurements, Km ATP
Sequence of EPHB4 (P54760 whole entry): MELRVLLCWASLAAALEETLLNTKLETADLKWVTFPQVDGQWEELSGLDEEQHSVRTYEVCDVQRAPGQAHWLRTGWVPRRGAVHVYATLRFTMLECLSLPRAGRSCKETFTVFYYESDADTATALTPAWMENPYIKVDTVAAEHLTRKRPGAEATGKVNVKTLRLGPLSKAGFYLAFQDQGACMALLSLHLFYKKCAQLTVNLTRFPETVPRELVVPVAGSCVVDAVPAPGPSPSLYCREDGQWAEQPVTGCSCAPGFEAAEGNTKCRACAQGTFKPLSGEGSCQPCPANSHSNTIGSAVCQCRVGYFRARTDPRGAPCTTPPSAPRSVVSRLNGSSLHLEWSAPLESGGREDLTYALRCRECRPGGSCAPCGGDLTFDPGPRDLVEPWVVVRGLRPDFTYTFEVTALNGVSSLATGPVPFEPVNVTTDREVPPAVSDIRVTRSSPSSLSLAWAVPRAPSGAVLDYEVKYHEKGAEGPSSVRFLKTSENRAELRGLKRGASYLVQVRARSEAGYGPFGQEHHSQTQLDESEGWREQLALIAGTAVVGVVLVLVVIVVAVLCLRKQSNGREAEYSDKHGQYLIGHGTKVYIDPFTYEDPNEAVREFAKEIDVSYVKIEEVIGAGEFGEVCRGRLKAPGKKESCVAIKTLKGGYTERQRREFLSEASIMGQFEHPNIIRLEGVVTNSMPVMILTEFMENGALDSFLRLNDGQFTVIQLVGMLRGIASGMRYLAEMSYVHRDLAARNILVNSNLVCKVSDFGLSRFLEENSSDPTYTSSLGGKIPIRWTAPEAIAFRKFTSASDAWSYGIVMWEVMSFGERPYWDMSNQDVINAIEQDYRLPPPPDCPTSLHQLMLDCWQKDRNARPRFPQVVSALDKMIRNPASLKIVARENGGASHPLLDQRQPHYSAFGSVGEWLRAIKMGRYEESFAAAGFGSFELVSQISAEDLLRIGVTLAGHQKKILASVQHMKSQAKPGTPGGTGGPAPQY
In short: as §1

CDK2/cyclin E2 = CDK2/cyclin E2 (Homo sapiens, UniProt P24941); conditions: duplicate measurements, Km ATP
In short: as §1

MRCKb/CDC42BPB = MRCKb/CDC42BPB (Homo sapiens, UniProt Q9Y5S2); conditions: duplicate measurements, Km ATP
In short: as §1

RIPK4 = RIPK4 (Homo sapiens, UniProt P57078); conditions: duplicate measurements, Km ATP
In short: as §1

[1] = read-out: % Enzyme Activity (relative to DMSO controls) / TP-0005801 (0.3µM) / Data 1
[2] = read-out: % Enzyme Activity (relative to DMSO controls) / TP-0005801 (0.3µM) / Data 2

SMILES: COc1cc(N2CCN(C)CC2)c(C)cc1Nc1ncc(Br)c(Nc2cccnc2N(C)C)n1 [TP-5801]
- remaining activity at 0.3 µM (PYK2; [1]): 23.7%
- remaining activity at 0.3 µM (PYK2; [2]): 23.5%
- remaining activity at 0.3 µM (ERBB2/HER2; [1]): 82.3%
- remaining activity at 0.3 µM (ERBB2/HER2; [2]): 81.7%
- remaining activity at 0.3 µM (PKCnu/PRKD3; [1]): 55.8%
- remaining activity at 0.3 µM (PKCnu/PRKD3; [2]): 55.5%
- remaining activity at 0.3 µM (STK16; [1]): 107%
- remaining activity at 0.3 µM (STK16; [2]): 105%
- remaining activity at 0.3 µM (CLK1; [1]): 11.9%
- remaining activity at 0.3 µM (CLK1; [2]): 11.7%
- remaining activity at 0.3 µM (p70S6Kb/RPS6KB2; [1]): 95.7%
- remaining activity at 0.3 µM (p70S6Kb/RPS6KB2; [2]): 90.1%
- remaining activity at 0.3 µM (MLK1/MAP3K9; [1]): 77.2%
- remaining activity at 0.3 µM (MLK1/MAP3K9; [2]): 76.6%
- remaining activity at 0.3 µM (ZAK/MLTK; [1]): 103%
- remaining activity at 0.3 µM (ZAK/MLTK; [2]): 101%
- remaining activity at 0.3 µM (ULK1; [1]): 49.9%
- remaining activity at 0.3 µM (ULK1; [2]): 49.7%
- remaining activity at 0.3 µM (CK1a1; [1]): 94.3%
- remaining activity at 0.3 µM (CK1a1; [2]): 93.1%
- remaining activity at 0.3 µM (c-Src; [1]): 107%
- remaining activity at 0.3 µM (c-Src; [2]): 106%
- remaining activity at 0.3 µM (SBK1; [1]): 99%
- remaining activity at 0.3 µM (SBK1; [2]): 95.5%
- remaining activity at 0.3 µM (IKKe/IKBKE; [1]): 99.7%
- remaining activity at 0.3 µM (IKKe/IKBKE; [2]): 94.2%
- remaining activity at 0.3 µM (CDK16/cyclin Y (PCTAIRE); [1]): 99.8%
- remaining activity at 0.3 µM (CDK16/cyclin Y (PCTAIRE); [2]): 97.2%
- remaining activity at 0.3 µM (NEK4): 122%
- remaining activity at 0.3 µM (CDK8/cyclin C; [1]): 31.9%
- remaining activity at 0.3 µM (CDK8/cyclin C; [2]): 31.6%
- remaining activity at 0.3 µM (EPHB4; [1]): 103%
- remaining activity at 0.3 µM (EPHB4; [2]): 102%
- remaining activity at 0.3 µM (CDK2/cyclin E2; [1]): 102%
- remaining activity at 0.3 µM (CDK2/cyclin E2; [2]): 101%
- remaining activity at 0.3 µM (MRCKb/CDC42BPB; [1]): 99.2%
- remaining activity at 0.3 µM (MRCKb/CDC42BPB; [2]): 98%
- remaining activity at 0.3 µM (RIPK4; [1]): 117%
- remaining activity at 0.3 µM (RIPK4; [2]): 108%
